Measurements reported in patent US20050171424A1, “Methods for imaging the lymphatic system using dendrimer-based contrast agents” (The Gov. of the USA as rep. by the Secretary of the Dept. …, priority 2004, published 2005).

Assays:
[1] = tested on: deep lymphatic system; assay: Whole-body dynamic 3D-micro-MR lymphangiography of normal mice (Example 2); format: in vivo; conditions: for Number of Mice in Which the Thoracic Duct was Visualized/Number of Mice Examined: Normal Mice, 0.1 μmolGd intracutaneously into four middle phalanges; for Visualization of the deep lymph nodes: normal mice, 10 to 45 min after intracutaneous injection, FIGS. 7, 8; for Axillary lymph node-to-background (muscle) signal intensity ratio, comparison between agents: T1-weighted signal, P<0.01, FIG. 9A; for Axillary lymph node-to-background (muscle) signal intensity ratio, comparison between agents / Axillary lymph node-to-liver signal intensity ratio, comparison between agents: all time points examined; for Axillary lymph node-to-liver signal intensity ratio, comparison between agents: P<0.01, FIG. 9B
Protocol: (§1) The mice were anesthetized with 1.15 mg sodium pentobarbital (Dainabot, Osaka, Japan) i.p., and then injected intracutaneously with 0.1 μmolGd of PAMAM-G8, DAB-G5, PAMAM-G4, Gadomer-17, or GPDM into four middle phalanges in all four extremities. Dynamic micro-MR images were obtained using a 1.5-Tesla superconductive magnet unit (Signa LX, General Electric Medical System, Milwaukee, Wis.) with a round birdcage type coil of 3 cm diameter fixed by a custom-made coil holder. Four to eight female mice (7 weeks old, 18-21 g body weight) in each group were used and each contrast agent was prepared at least three separate times for these imaging studies. The mice were wrapped with gauze to stabilize their body temperature and were placed at the center of the coils.
(§2) A 3D-fast spoiled gradient echo [3D-fastSPGR (efgre3d package; Signa Horizon, GE); repetition time/echo time 28.5/7.9 msec; inversion time 65 msec; 31.2 kHz, flip angle 30°, four excitations; 40 slice-encoding steps; scan time 7 min 36 seconds] with chemical shift fat-suppression was used 10, 20, 30, and 45 min after injection of the contrast agents. The coronal images were reconstructed with 0.6-mm section thickness at every 0.3-mm. The FOV was 6×3 cm and the size of the matrix was 512×256. The intensities of the regions of interest (ROIs) (for example, a whole axillary lymph node, and the liver) were measured, and then the time-intensity curves analyzed. The data were expressed as the axillary lymph node-to-muscle and the axillary lymph node-to-liver ratios. The slice data were processed into 3D images using the MIP method with the same window and level (window 3500 and level 2300) (Advantage Windows, General Electric Medical System). Two board-certified radiologists separately read a set of stereo views of 3D-MRL for all studies, and estimated the visualization of the thoracic duct. After imaging, the mice were sacrificed by carbon dioxide inhalation.
Statistical analyses were performed using either Student's t-test or a one-way analysis of variance (ANOVA), with a pairwise comparison using the Bonferroni method for signal intensity curves (Statview; SAS Institute Inc., Cary, N.C.).

[2] = tested on: deep lymph nodes, thoracic duct and lymphatic vessels; assay: Whole-body 3D-micro-MR lymphangiography of normal mice, PAMAM-G8 versus GPDM (Example 3); format: in vivo; conditions: intracutaneous injection, 0.05 mmolGd/kg (FIG. 13)
Protocol: as §1, §2
In this example, the PAMAM-G8 contrast agent is compared to GPDM. PAMAM-G8 was prepared as described in Example 2, and GPDM was purchased (Schering AG, Berlin, Germany). Animal models, administration of the contrast agents, and 3D-micro-MRL were as described in Example 2.

[3] = tested on: draining lymph nodes and lymphatic vessels; assay: 3D dynamic mammo-lymphangiograms after sequential injection of GPDM and PAMAM-G6 into the mammary gland; format: in vivo, athymic nu/nu mice; conditions: 0.15 μmol Gd into mammary gland; GPDM imaged at 12, 24, 36 min, then PAMAM-G6 injected 36 minutes following GPDM
Protocol: Mice were anesthetized with 1.15 mg sodium pentobarbital (Dainabot, Osaka, Japan), and then injected with 0.15-0.24 μmol Gd/5-8 μL of the PAMAM-G6 contrast agent into normal mammary glands or mammary tissue surrounding a tumor (peritumorally). Dynamic micro-MR images were obtained using a 1.5-Tesla superconductive magnet unit (Signa LX, General Electric Medical System, Milwaukee, Wis.) with a birdcage type coil of 3 cm diameter fixed by a custom made coil holder. [Single and double “breast coils” used for imaging breasts in humans are commercially available, for example, from GE Medical Systems (Milwaukee, Wis.) and are routinely available in outpatient MRI centers] The mice were wrapped with gauze to stabilize their body temperature and were placed at the center of the coils. Athymic nu/nu mice (n=4) were anesthetized and injected with 0.15 μmol Gd of GPDM into the mammary gland, and images were taken 12, 24, and 36 min after injection. Following these three images, these mice were subsequently injected with 0.15 μmol Gd of PAMAM-G6 contrast agent in the mammary gland, and images were taken at 12 and 24 min post-injection of the PAMAM-G6 contrast agent (at 48 and 60 min post-injection of GPDM).

[4] = tested on: lymph nodes and lymphatic vessels of IL-15 transgenic mice; assay: 3D-micro-MRL in IL-15 transgenic lymphoproliferative/neoplastic disease model; format: in vivo; conditions: 45 minutes after injection, FIGS. 11, 15A
Protocol: Eight- to 10-month old IL-15 transgenic mice (on a C57BL6 background) were used as a chronic lymphoproliferative/neoplastic disease model because they manifested selective expansion of NK, CD8^+NK-T, γδIELs, and CD8 T cells in the periphery. Most of the lymph nodes collected from an aged IL-15 transgenic mouse were enlarged in size. The lesion of proliferated monoclonal lymphocytes often involved the lung and the subcutaneous lymphatic tissue.
as §1
as §2, with “The FOV was 6×3 cm and the size of the matrix was 512×256.” left out, “The slice data were processed into 3D images using the MIP method with the same window and level (window 3500 and level 2300) (Advantage Windows, General Electric Medical System).” left out, “After imaging, the mice were sacrificed by carbon dioxide inhalation.” left out

[5] = Distribution and survival properties of the dendrimer conjugates; conditions: in vivo

| Compound | Image enhancement ([1]; 45 minutes after injection, FIG. 8B) | Number of Mice in Which the Thoracic Duct was Visualized/Number of Mice Examined ([1]; 10 min) | Number of Mice in Which the Thoracic Duct was Visualized/Number of Mice Examined ([1]; 20 min) | Number of Mice in Which the Thoracic Duct was Visualized/Number of Mice Examined ([1]; 30 min) | Number of Mice in Which the Thoracic Duct was Visualized/Number of Mice Examined ([1]; 45 min) | Visualization of the deep lymph nodes [1] | Visualization of deep lymph nodes throughout the body [2] | Visualization of draining lymph nodes and lymphatic vessels (FIG. 3) [3] | Axillary lymph node-to-background (muscle) signal intensity ratio, comparison between agents [1] | Axillary lymph node-to-liver signal intensity ratio, comparison between agents [1] | Lymph node findings on 3D-micro-MRL [4] | Distribution within the lymphatic system [5] | Survival in the blood circulation and excretion [5] |
| --- | --- | --- | --- | --- | --- | --- | --- | --- | --- | --- | --- | --- | --- |
| CNC[C@H](O)[C@@H](O)[C@H](O)[C@H](O)CO.CNC[C@H](O)[C@@H](O)[C@H](O)[C@H](O)CO.O=C([O-])CN(CCN(CC(=O)[O-])CC(=O)O)CCN(CC(=O)[O-])CC(=O)O.[Gd+3] [GPDM, gadopentetate dimeglumine, reference compound] | Virtually no image enhancement | 2/5 | 0/5 | 0/5 | 0/5 | did not allow most of the lymph nodes to be visualized even at early times | but not with GPDM | not well visualized |  |  |  |  |  |
| DAB-Am-128-(Gd-1B4M)128 dendrimer conjugate [DAB-G5] |  | 3/5 | 2/5 | 0/5 | 0/5 |  |  |  | significantly higher than that obtained with either PAMAM-G8 or PAMAM-G4 | nearly equivalent, but were significantly higher than that measured with GPDM | considerable multiple lymph node swellings with central filling defects | tend to accumulate in the lymph nodes rather than the vessels |  |
| Gadomer-17 [reference compound] |  | 2/5 | 2/5 | 1/5 | 1/5 | allowed visualization of the deep lymph nodes, albeit not as clearly and brightly as the dendrimer-based agents |  |  | significantly higher than that acquired with GPDM | nearly equivalent, but were significantly higher than that measured with GPDM |  |  |  |
| PAMAM-G4D-(Gd-1B4M)64 dendrimer conjugate |  | 4/5 | 4/5 | 3/5 | 2/5 |  |  |  | significantly higher than that measured with Gadomer-17 and GPDM | significantly higher than that acquired with PAMAM-G8, DAB G-5, or Gadomer-17 |  | tend to accumulate in the lymph nodes rather than the vessels | short survival in the blood circulation due to a rapid renal excretion without significant retention in other organs |
